Measurements published in patent US12215140B2, “Method of stabilizing protein contained in specimen and solution for stabilizing protein contained in specimen” (EIKEN KAGAKU KABUSHIKI KAISHA, priority 2018, dated 2025).

Test system: hemoglobin-haptoglobin complex
Assay: Stability of hemoglobin (as hemoglobin-haptoglobin complex) in samples preserved at 37° C. in preservation solution containing 1 unit/L haptoglobin, Hb measured by latex agglutination method (Examples 1 to 7)
Set-up: species or system human
Conditions: 37° C.
Procedure, shortened: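 Latex agglutination (anti-human hemoglobin rabbit polyclonal latex) measured Hb in samples stored at 37 °C up to 21 days; values expressed as % recovery versus day 0. Preservation solution: HEPES 40 mmol/L pH 6.8, BSA 0.1%, NaN3 0.1%, haptoglobin 1 unit/L, phenylboronic acid 0–100 mmol/L, optional sugars; ~300 µg/L Hb, 0.5% feces or none.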

[1] = Feces 1, sugar 50 mmol/L + phenylboronic acid 15 mmol/L, 0 days
[2] = Feces 1, sugar 50 mmol/L + phenylboronic acid 15 mmol/L, 7 days
[3] = Feces 1, sugar 50 mmol/L + phenylboronic acid 15 mmol/L, 14 days
[4] = Feces 1, sugar 50 mmol/L + phenylboronic acid 15 mmol/L, 21 days
[5] = Feces 1, sugar 100 mmol/L + phenylboronic acid 0.5 mmol/L, 0 days
[6] = Feces 1, sugar 100 mmol/L + phenylboronic acid 0.5 mmol/L, 7 days
[7] = Feces 1, sugar 100 mmol/L + phenylboronic acid 0.5 mmol/L, 14 days
[8] = Feces 1, sugar 100 mmol/L + phenylboronic acid 15 mmol/L, 0 days
[9] = Feces 1, sugar 100 mmol/L + phenylboronic acid 15 mmol/L, 0 days (Table 7)
[10] = Feces 1, sugar 100 mmol/L + phenylboronic acid 15 mmol/L, 7 days
[11] = Feces 1, sugar 100 mmol/L + phenylboronic acid 15 mmol/L, 7 days (Table 7)
[12] = Feces 1, sugar 100 mmol/L + phenylboronic acid 15 mmol/L, 14 days
[13] = Feces 1, sugar 100 mmol/L + phenylboronic acid 15 mmol/L, 14 days (Table 7)
[14] = Feces 1, sugar 100 mmol/L + phenylboronic acid 15 mmol/L, 21 days
[15] = Feces 1, sugar 100 mmol/L + phenylboronic acid 50 mmol/L, 0 days
[16] = Feces 1, sugar 100 mmol/L + phenylboronic acid 50 mmol/L, 7 days
[17] = Feces 1, sugar 100 mmol/L + phenylboronic acid 50 mmol/L, 14 days
[18] = Feces 1, sugar 100 mmol/L, no phenylboronic acid, 0 days
[19] = Feces 1, sugar 100 mmol/L, no phenylboronic acid, 7 days
[20] = Feces 1, sugar 100 mmol/L, no phenylboronic acid, 14 days
[21] = Feces 1, sugar 100 mmol/L, no phenylboronic acid, 21 days
[22] = Feces 2, sugar 50 mmol/L + phenylboronic acid 15 mmol/L, 0 days
[23] = Feces 2, sugar 50 mmol/L + phenylboronic acid 15 mmol/L, 7 days
[24] = Feces 2, sugar 50 mmol/L + phenylboronic acid 15 mmol/L, 14 days
[25] = Feces 2, sugar 50 mmol/L + phenylboronic acid 15 mmol/L, 21 days
[26] = Feces 2, sugar 100 mmol/L + phenylboronic acid 0.5 mmol/L, 0 days
[27] = Feces 2, sugar 100 mmol/L + phenylboronic acid 0.5 mmol/L, 7 days
[28] = Feces 2, sugar 100 mmol/L + phenylboronic acid 0.5 mmol/L, 14 days
[29] = Feces 2, sugar 100 mmol/L + phenylboronic acid 15 mmol/L, 0 days
[30] = Feces 2, sugar 100 mmol/L + phenylboronic acid 15 mmol/L, 0 days (Table 7)
[31] = Feces 2, sugar 100 mmol/L + phenylboronic acid 15 mmol/L, 7 days
[32] = Feces 2, sugar 100 mmol/L + phenylboronic acid 15 mmol/L, 7 days (Table 7)
[33] = Feces 2, sugar 100 mmol/L + phenylboronic acid 15 mmol/L, 14 days
[34] = Feces 2, sugar 100 mmol/L + phenylboronic acid 15 mmol/L, 14 days (Table 7)
[35] = Feces 2, sugar 100 mmol/L + phenylboronic acid 15 mmol/L, 21 days
[36] = Feces 2, sugar 100 mmol/L + phenylboronic acid 50 mmol/L, 0 days
[37] = Feces 2, sugar 100 mmol/L + phenylboronic acid 50 mmol/L, 7 days
[38] = Feces 2, sugar 100 mmol/L + phenylboronic acid 50 mmol/L, 14 days
[39] = Feces 2, sugar 100 mmol/L, no phenylboronic acid, 0 days
[40] = Feces 2, sugar 100 mmol/L, no phenylboronic acid, 7 days
[41] = Feces 2, sugar 100 mmol/L, no phenylboronic acid, 14 days
[42] = Feces 2, sugar 100 mmol/L, no phenylboronic acid, 21 days
[43] = Feces 3, sugar 50 mmol/L + phenylboronic acid 15 mmol/L, 0 days

OC[C@@H](O)[C@@H](O)[C@H](O)[C@@H](O)CO [Sorbitol, sorbitol]
Hb concentration [1]: 291 µg/L | Recovery ratio with respect to Hb concentration after 0 days [1]: 100% | Hb concentration [2]: 300 µg/L | Recovery ratio with respect to Hb concentration after 0 days [2]: 103% | Hb concentration [3]: 300 µg/L | Recovery ratio with respect to Hb concentration after 0 days [3]: 103% | Hb concentration [4]: 296 µg/L | Recovery ratio with respect to Hb concentration after 0 days [4]: 102% | Hb concentration [5]: 310 µg/L | Recovery ratio with respect to Hb after 0 days [5]: 100% | Hb concentration [6]: 206 µg/L | Recovery ratio with respect to Hb after 0 days [6]: 66% | Hb concentration [7]: 178 µg/L | Recovery ratio with respect to Hb after 0 days [7]: 57% | Hb concentration [8]: 287 µg/L | Recovery ratio with respect to Hb concentration after 0 days [8]: 100% | Hb concentration [9]: 301 µg/L | Recovery ratio with respect to Hb after 0 days [9]: 100% | Hb concentration [10]: 292 µg/L | Recovery ratio with respect to Hb concentration after 0 days [10]: 102% | Hb concentration [11]: 297 µg/L | Recovery ratio with respect to Hb after 0 days [11]: 99% | Hb concentration [12]: 294 µg/L | Recovery ratio with respect to Hb concentration after 0 days [12]: 102% | Hb concentration [13]: 295 µg/L | Recovery ratio with respect to Hb after 0 days [13]: 98% | Hb concentration [14]: 290 µg/L | Recovery ratio with respect to Hb concentration after 0 days [14]: 101% | Hb concentration [15]: 281 µg/L | Recovery ratio with respect to Hb after 0 days [15]: 100% | Hb concentration [16]: 274 µg/L | Recovery ratio with respect to Hb after 0 days [16]: 98% | Hb concentration [17]: 275 µg/L | Recovery ratio with respect to Hb after 0 days [17]: 98% | Hb concentration [18]: 283 µg/L | Recovery ratio with respect to Hb concentration after 0 days [18]: 100% | Hb concentration [19]: 143 µg/L | Recovery ratio with respect to Hb concentration after 0 days [19]: 51% | Hb concentration [20]: 102 µg/L | Recovery ratio with respect to Hb concentration after 0 days [20]: 36% | Hb concentration [21]: 97 µg/L | Recovery ratio with respect to Hb concentration after 0 days [21]: 34% | Hb concentration [22]: 281 µg/L | Recovery ratio with respect to Hb concentration after 0 days [22]: 100% | Hb concentration [23]: 280 µg/L | Recovery ratio with respect to Hb concentration after 0 days [23]: 100% | Hb concentration [24]: 252 µg/L | Recovery ratio with respect to Hb concentration after 0 days [24]: 90% | Hb concentration [25]: 222 µg/L | Recovery ratio with respect to Hb concentration after 0 days [25]: 79% | Hb concentration [26]: 301 µg/L | Recovery ratio with respect to Hb after 0 days [26]: 100% | Hb concentration [27]: 173 µg/L | Recovery ratio with respect to Hb after 0 days [27]: 57% | Hb concentration [28]: 154 µg/L | Recovery ratio with respect to Hb after 0 days [28]: 51% | Hb concentration [29]: 274 µg/L | Recovery ratio with respect to Hb concentration after 0 days [29]: 100% | Hb concentration [30]: 299 µg/L | Recovery ratio with respect to Hb after 0 days [30]: 100% | Hb concentration [31]: 276 µg/L | Recovery ratio with respect to Hb concentration after 0 days [31]: 101% | Hb concentration [32]: 300 µg/L | Recovery ratio with respect to Hb after 0 days [32]: 100% | Hb concentration [33]: 246 µg/L | Recovery ratio with respect to Hb concentration after 0 days [33]: 90% | Hb concentration [34]: 298 µg/L | Recovery ratio with respect to Hb after 0 days [34]: 100% | Hb concentration [35]: 219 µg/L | Recovery ratio with respect to Hb concentration after 0 days [35]: 80% | Hb concentration [36]: 275 µg/L | Recovery ratio with respect to Hb after 0 days [36]: 100% | Hb concentration [37]: 279 µg/L | Recovery ratio with respect to Hb after 0 days [37]: 101% | Hb concentration [38]: 284 µg/L | Recovery ratio with respect to Hb after 0 days [38]: 103% | Hb concentration [39]: 277 µg/L | Recovery ratio with respect to Hb concentration after 0 days [39]: 100% | Hb concentration [40]: 113 µg/L | Recovery ratio with respect to Hb concentration after 0 days [40]: 41% | Hb concentration [41]: 77 µg/L | Recovery ratio with respect to Hb concentration after 0 days [41]: 28% | Hb concentration [42]: 51 µg/L | Recovery ratio with respect to Hb concentration after 0 days [42]: 18% | Hb concentration [43]: 283 µg/L | Recovery ratio with respect to Hb concentration after 0 days [43]: 100%
